Laboratory results published in ChEMBL document CHEMBL5724914, “Linking interpersonal differences in gut microbiota composition and drug biotransformation activity” (2024).

Legend:
[1] = (§1) The drug is tested on Z-017 corresponding to mouse gut metagenome with ENA study accession number: PRJEB37062 and ENA sample accession number: ERS12561816 for biotransformation under anaerobic condition. The drug concentrations were measured over 9 timepoints collected between 0 and 24 hours of incubation by liquid-chromatography-coupled mass spectrometry (LC–MS); conditions: 2 µM
[2] = as §1, with “Z-020” for “Z-017”, “rabbit” for “mouse”, “ERS12561819” for “ERS12561816”; conditions: 2 µM
[3] = human gut metagenome, 24 h, 2 µM
[4] = human gut metagenome, 24 h, 2 µM; remark: listed apart in the source
[5] = as §1, with “Z-024” for “Z-017”, “pig” for “mouse”, “ERS12561823” for “ERS12561816”; conditions: 2 µM
[6] = as §1, with “WLS-370” for “Z-017”, “human” for “mouse”, “ERS12561793” for “ERS12561816”; conditions: 2 µM
[7] = as §1, with “Z-005” for “Z-017”, “to” for “to mouse gut”, “ERS12561805” for “ERS12561816”; conditions: 2 µM
[8] = as §1, with “WLS-090” for “Z-017”, “human” for “mouse”, “ERS12561753” for “ERS12561816”; conditions: 2 µM
[9] = as §1, with “Z-003” for “Z-017”, “pig” for “mouse”, “ERS12561803” for “ERS12561816”; conditions: 2 µM
[10] = as §1, with “WLS-073” for “Z-017”, “human” for “mouse”, “ERS12561749” for “ERS12561816”; conditions: 2 µM
[11] = human gut metagenome, 24 h, 2 µM; remark: listed apart in the source
[12] = as §1, with “Z-016” for “Z-017”, “ERS12561815” for “ERS12561816”; conditions: 2 µM
[13] = human gut metagenome, 24 h, 2 µM; remark: listed apart in the source
[14] = human gut metagenome, 24 h, 2 µM; remark: listed apart in the source
[15] = human gut metagenome, 24 h, 2 µM; remark: listed apart in the source
[16] = as §1, with “Z-006” for “Z-017”, “ERS12561806” for “ERS12561816”; conditions: 2 µM
[17] = human gut metagenome, 24 h, 2 µM; remark: listed apart in the source
[18] = as §1, with “WLS-039” for “Z-017”, “human” for “mouse”, “ERS12561746” for “ERS12561816”; conditions: 2 µM
[19] = as §1, with “Z-029” for “Z-017”, “rat” for “mouse”, “ERS12561828” for “ERS12561816”; conditions: 2 µM
[20] = human gut metagenome, 24 h, 2 µM; remark: listed apart in the source
Note: call rule not given here.

| SMILES | Bacterial Biotransformation [1] | Bacterial Biotransformation [2] | Bacterial Biotransformation [3] | Bacterial Biotransformation [4] | Bacterial Biotransformation [5] | Bacterial Biotransformation [6] | Bacterial Biotransformation [7] | Bacterial Biotransformation [8] | Bacterial Biotransformation [9] | Bacterial Biotransformation [10] | Bacterial Biotransformation [11] | Bacterial Biotransformation [12] | Bacterial Biotransformation [13] | Bacterial Biotransformation [14] | Bacterial Biotransformation [15] | Bacterial Biotransformation [16] | Bacterial Biotransformation [17] | Bacterial Biotransformation [18] | Bacterial Biotransformation [19] | Bacterial Biotransformation [20] |
| --- | --- | --- | --- | --- | --- | --- | --- | --- | --- | --- | --- | --- | --- | --- | --- | --- | --- | --- | --- | --- |
| CN(C)CCc1c[nH]c2ccc(Cn3cncn3)cc12.O=C(O)c1ccccc1 [RIZATRIPTAN BENZOATE] | Compound NOT metabolized | Compound NOT metabolized | Compound NOT metabolized | Compound NOT metabolized | Compound NOT metabolized | Compound NOT metabolized | Compound NOT metabolized | Compound NOT metabolized | Compound NOT metabolized | Compound NOT metabolized | Compound NOT metabolized | Compound NOT metabolized | Compound NOT metabolized | Compound NOT metabolized | Compound NOT metabolized | Compound NOT metabolized | Compound NOT metabolized | Compound NOT metabolized | Compound NOT metabolized | Compound NOT metabolized |
| CN1C(C(=O)Nc2ccccn2)=C(O)c2sccc2S1(=O)=O [TENOXICAM] | Compound NOT metabolized | Compound NOT metabolized | Compound NOT metabolized | Compound NOT metabolized | Compound metabolized | Compound NOT metabolized | Compound NOT metabolized | Compound NOT metabolized | Compound NOT metabolized | Compound NOT metabolized | Compound NOT metabolized | Compound NOT metabolized | Compound NOT metabolized | Compound NOT metabolized | Compound NOT metabolized | Compound NOT metabolized | Compound NOT metabolized | Compound NOT metabolized | Compound NOT metabolized | Compound metabolized |
| CCCc1nn(C)c2c(=O)[nH]c(-c3cc(S(=O)(=O)N4CCN(C)CC4)ccc3OCC)nc12.O=C(O)CC(O)(CC(=O)O)C(=O)O [SILDENAFIL CITRATE] | Compound NOT metabolized | Compound NOT metabolized | Compound NOT metabolized | Compound metabolized | Compound metabolized | Compound NOT metabolized | Compound NOT metabolized | Compound metabolized | Compound NOT metabolized | Compound NOT metabolized | Compound metabolized | Compound NOT metabolized | Compound NOT metabolized | Compound NOT metabolized | Compound metabolized | Compound NOT metabolized | Compound metabolized | Compound NOT metabolized | Compound NOT metabolized | Compound NOT metabolized |
| CN1CCN(C(=O)O[C@H]2c3nccnc3C(=O)N2c2ccc(Cl)cn2)CC1 [ESZOPICLONE] | Compound NOT metabolized | Compound NOT metabolized | Compound NOT metabolized | Compound NOT metabolized | Compound NOT metabolized | Compound NOT metabolized | Compound NOT metabolized | Compound NOT metabolized | Compound NOT metabolized | Compound NOT metabolized | Compound NOT metabolized | Compound NOT metabolized | Compound NOT metabolized | Compound NOT metabolized | Compound NOT metabolized | Compound NOT metabolized | Compound NOT metabolized | Compound NOT metabolized | Compound NOT metabolized | Compound NOT metabolized |
| OC(CCN1CCCCC1)(c1ccccc1)C1CCCCC1 (stereo not given) [TRIHEXYPHENIDYL] | Compound NOT metabolized | Compound metabolized | Compound metabolized | Compound NOT metabolized | Compound metabolized | Compound metabolized | Compound metabolized | Compound metabolized | Compound metabolized | Compound metabolized | Compound metabolized | Compound metabolized | Compound metabolized | Compound metabolized | Compound metabolized | Compound NOT metabolized | Compound NOT metabolized | Compound metabolized | Compound NOT metabolized | Compound NOT metabolized |
| CCN(CC)CCNC(C(=O)OCCC(C)C)c1ccccc1.Cl.Cl (stereo not given) | Compound NOT metabolized | Compound metabolized | Compound metabolized | Compound metabolized | Compound metabolized | Compound metabolized | Compound metabolized | Compound metabolized | Compound metabolized | Compound metabolized | Compound metabolized | Compound NOT metabolized | Compound metabolized | Compound metabolized | Compound metabolized | Compound NOT metabolized | Compound NOT metabolized | Compound NOT metabolized | Compound NOT metabolized | Compound metabolized |
| COc1ccccc1OCC(O)CN1CCN(CC(=O)Nc2c(C)cccc2C)CC1 (stereo not given) [RANOLAZINE] | Compound NOT metabolized | Compound NOT metabolized | Compound NOT metabolized | Compound NOT metabolized | Compound NOT metabolized | Compound NOT metabolized | Compound NOT metabolized | Compound NOT metabolized | Compound metabolized | Compound NOT metabolized | Compound NOT metabolized | Compound NOT metabolized | Compound NOT metabolized | Compound NOT metabolized | Compound NOT metabolized | Compound NOT metabolized | Compound NOT metabolized | Compound NOT metabolized | Compound NOT metabolized | Compound NOT metabolized |
| CCCCC1=NC2(CCCC2)C(=O)N1Cc1ccc(-c2ccccc2-c2nnn[nH]2)cc1 [IRBESARTAN] | Compound NOT metabolized | Compound metabolized | Compound metabolized | Compound metabolized | Compound metabolized | Compound metabolized | Compound metabolized | Compound metabolized | Compound metabolized | Compound metabolized | Compound metabolized | Compound NOT metabolized | Compound metabolized | Compound metabolized | Compound metabolized | Compound metabolized | Compound metabolized | Compound metabolized | Compound NOT metabolized | Compound metabolized |
